Tested on: L5178Y tk+/- mouse lymphoma cells
Assay: Mutagenic activity at the thymidine kinase (tk) locus
Format: cell-based
Conditions: compared to vehicle
Protocol: Because some nucleobase analogs exert mutagenic activities due to their misrecognition of wrong bases, mutagenic activity of 6-HAP was determined by detecting mutagenic events at the thymidine kinase (tk) locus of L5178Y tk^+/− mouse lymphoma cells.

With `COS(C)(=O)=O` [methyl methanesulfonate, reference compound] the “mutagenic activity, mutation frequency at tk locus” value was “did induce a high mutation frequency”.
